From patent US9890176B2, “Mannose derivatives for treating bacterial infections” (Vertex Pharmaceuticals Incorporated, priority 2013, dated 2018)

Biological target: T1, carbohydrate recognition domain of the protein FimH (M1-T179) (Escherichia coli, UniProt P08191)
T1 construct: domain of the protein FimH (M1-T179) with an uncleavable C-terminus 6-His tag; made in house; host or cells: E. coli (pET21b plasmid)
Test: Thermal Shift Assay
Format: binding, E. coli
Settings: 5.6 μM protein, 56 μM ligand; DMSO control as reference; ± standard error of the mean (number of repeats)
Protocol: The carbohydrate recognition domain of the protein FimH (M1-T179) with an uncleavable C-terminus 6-His tag is cloned in a pET21b plasmid and expressed in E. coli and purified to homogeneity. The thermal stabilization of the protein upon ligand binding is measured in a 96-well format on a ViiA™ 7 (Life Technologies, Carlsbad, Calif.) RT-PCR instrument. The assay is conducted in duplicate in 20 mM Tris pH 7.4 and 150 mM NaCl at a final concentration of 5.6 μM and 56 μM for protein and ligand, respectively. An environmentally-sensitive dye (Applied Biosystems Protein Thermal Shift™ Dye (P/N 4461141)) is added to each well to a final ratio of 1:1000. Plates are spun at 1000×g for 1 minute and incubated at room temperature for 10 minutes. Thermal stability of protein with and without ligand is measured from 45° C. to 85° C. at a scan rate of 0.05° C./sec. The resulting data is analyzed using Protein Thermal Shift™ Software (version 1.1) with DMSO control used as reference.

T1 sequence (P08191 22-179 limits assumed): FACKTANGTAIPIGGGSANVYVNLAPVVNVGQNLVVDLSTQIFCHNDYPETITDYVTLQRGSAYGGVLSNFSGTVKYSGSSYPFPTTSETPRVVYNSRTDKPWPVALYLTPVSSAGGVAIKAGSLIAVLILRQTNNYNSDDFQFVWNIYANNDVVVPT

| Structure (SMILES) | Delta Thermal melt |
| --- | --- |
| Cc1cc(Br)ccc1O[C@H]1O[C@H](CO)[C@@H](O)[C@H](O)[C@@H]1F [Example 1, (2R,3S,4S,5S,6R)-6-(4-bromo-2-methyl-phenoxy)-5-fluoro-2-(hydroxymethyl)tetrahydropyran-3,4-diol] | 3 (1) ° C. |
| OC[C@H]1O[C@H](Oc2ccc(Br)cc2C(F)(F)F)[C@@H](F)[C@@H](O)[C@@H]1O [Example 3, (2R,3S,4S,5S,6R)-6-[4-bromo-2-(trifluoromethyl)phenoxy]-5-fluoro-2-(hydroxymethyl)tetrahydropyran-3,4-diol] | 3.2 (1) ° C. |
| COc1cc(Br)ccc1O[C@H]1O[C@H](CO)[C@@H](O)[C@H](O)[C@@H]1F [Example 5, (2R,3S,4S,5S,6R)-6-(4-bromo-2-methoxy-phenoxy)-5-fluoro-2-(hydroxymethyl)tetrahydropyran-3,4-diol] | 1.8 (1) ° C. |
| COC(=O)c1cc(C(=O)OC)cc(-c2ccc(O[C@H]3O[C@H](CO)[C@@H](O)[C@H](O)[C@@H]3F)cc2)c1 [Example 9, Dimethyl 5-[4-[(2R,3S,4S,5S,6R)-3-fluoro-4,5-dihydroxy-6-(hydroxymethyl)tetrahydropyran-2-yl]oxyphenyl]benzene-1,3-dicarboxylate] | 4.39 ± 0.11 (2) ° C. |
| Cc1cc(=O)oc2cc(O[C@H]3O[C@H](CO)[C@@H](O)[C@H](O)[C@@H]3F)ccc12 [Example 10, 7-[(2R,3S,4S,5S,6R)-3-fluoro-4,5-dihydroxy-6-(hydroxymethyl)tetrahydropyran-2-yl]oxy-4-methyl-chromen-2-one] | 3.405 ± 0.105 (2) ° C. |

System: bacterial strain LF82 binding to the glycoprotein BSA-(Mannose)3
Test: Bacterial Binding Assay (BBA)
Format: cell-based, Escherichia coli
Settings: read-out: Bacterial Binding Assay IC50
Summary of the method: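 Luciferase-tagged E. coli LF82 grown overnight at 37° C without shaking, then added at 2×10^8 bacteria/mL (10^7 per well) to wells coated with 0.5-2 μg/mL BSA-(Man)3 and blocked with 2% BSA. Compound in 0.2% BSA/D-PBS; binding 40-75 min at room temperature. Washed; bound bacteria read by luciferase luminescence; IC50.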

| Structure (SMILES) | IC50 |
| --- | --- |
| OC[C@H]1O[C@@]2(CCc3cc(-c4ccc5c(c4)CC[C@]4(O5)O[C@H](CO)[C@@H](O)[C@H](O)[C@@H]4O)ccc3O2)[C@@H](O)[C@@H](O)[C@@H]1O [Example 126, (2R,3′S,4′S,5′S,6′R)-6′-(hydroxymethyl)-6-[(2R,3′S,4′S,5′S,6′R)-3′,4′,5′-trihydroxy-6′-(hydroxymethyl)spiro[chromane-2,2′-tetrahydropyran]-6-yl]spiro[chromane-2,2′-tetrahydropyran]-3′,4′,5′-triol] | 8 nM |
| OC[C@H]1O[C@@]2(CCc3cc(-c4cncc(-c5ccc6c(c5)CC[C@]5(O6)O[C@H](CO)[C@@H](O)[C@H](O)[C@@H]5O)c4)ccc3O2)[C@@H](O)[C@@H](O)[C@@H]1O [Example 129, (2R,3′S,4′S,5′S,6′R)-6′-(hydroxymethyl)-6-[5-[(2R,3′S,4′S,5′S,6′R)-3′,4′,5′-trihydroxy-6′-(hydroxymethyl)spiro[chromane-2,2′-tetrahydropyran]-6-yl]-3-pyridyl]spiro[chromane-2,2′-tetrahydropyran]-3′,4′,5′-triol] | 11 ± 6 nM |
| CNC(=O)c1cccc(-c2ccc(O[C@H]3O[C@H](CO)[C@@H](O)[C@](C)(O)[C@@H]3O)c(C)c2)c1 [compound 25] | 68 ± 18 nM |
| CNC(=O)c1cccc(-c2ccc(O[C@H]3O[C@](C)(CO)[C@@H](O)[C@H](O)[C@@H]3O)c(C)c2)c1 [compound 26] | 2370 ± 544 nM |
| CNC(=O)c1cccc(-c2ccc(O[C@H]3O[C@H]([C@H](C)O)[C@@H](O)[C@H](O)[C@@H]3O)c(C)c2)c1 [compound 27] | 165 ± 49 nM |
| C[C@H](O)[C@H]1O[C@H](Oc2ccc(N3CCc4cc([N+](=O)[O-])ccc43)cc2Cl)[C@@H](O)[C@@H](O)[C@@H]1O [compound 28] | 1300 nM |
| CNC(=O)c1cccc(-c2ccc(O[C@H]3O[C@H]([C@@H](C)O)[C@@H](O)[C@H](O)[C@@H]3O)c(C)c2)c1 [compound 29] | > 10000 nM |
| COc1ccc2c(c1)CC[C@]1(O2)O[C@H](CO)[C@@H](O)[C@H](O)[C@@H]1O [compound 32] | 333 ± 100 nM |
| CNC(=O)c1cccc(-c2ccc3c(c2)CC[C@]2(O3)O[C@H](CO)[C@@H](O)[C@H](O)[C@@H]2O)c1 [compound 33] | 27 ± 8 nM |
| CNC(=O)c1ccc(CCO[C@@]2(C)O[C@H](CO)[C@@H](O)[C@H](O)[C@@H]2O)cc1 [compound 35] | 1800 ± 300 nM |
